In PubChem BioAssay (NCI):
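How tested: cells in 96-well plates exposed to compound for 48 hours at five concentrations. TGI denotes the concentration required for complete inhibition of growth.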

Legend:
Assay in all cases: inhibition of tumour cell growth, NCI panel, 48 h
[1] = test system: 786-0 renal
[2] = test system: A498 renal
[3] = test system: A549 NSCLC
[4] = test system: ACHN renal
[5] = test system: CAKI-1 renal
[6] = test system: CCRF-CEM leukemia
[7] = test system: COLO 205 colon
[8] = test system: DU-145 prostate
[9] = test system: EKVX NSCLC
[10] = test system: HCC-2998 colon
[11] = test system: HCT-116 colon
[12] = test system: HCT-15 colon
[13] = test system: HL-60(TB) leukemia
[14] = test system: HOP-62 NSCLC
[15] = test system: HOP-92 NSCLC
[16] = test system: HS 578T breast
[17] = test system: HT29 colon
[18] = test system: IGROV1 ovarian
[19] = test system: K-562 leukemia
[20] = test system: KM12 colon
[21] = test system: M14 melanoma
[22] = test system: MALME-3M melanoma
[23] = test system: MCF7 breast
[24] = test system: MDA-N
[25] = test system: MOLT-4 leukemia
[26] = test system: NCI-H23 lung
[27] = test system: NCI-H460 lung
[28] = test system: NCI/ADR-RES ovarian
[29] = test system: OVCAR-4 ovarian
[30] = test system: OVCAR-5 ovarian
[31] = test system: OVCAR-8 ovarian
[32] = test system: PC-3 prostate
[33] = test system: RPMI-8226 leukemia
[34] = test system: RXF 393 renal
[35] = test system: SF-268 CNS
[36] = test system: SF-295 CNS
[37] = test system: SK-MEL-28 melanoma
[38] = test system: SK-MEL-5 melanoma
[39] = test system: SK-OV-3 ovarian
[40] = test system: SNB-19 CNS
[41] = test system: SNB-75 CNS
[42] = test system: SR leukemia
[43] = test system: SW-620 colon
[44] = test system: T-47D breast
[45] = test system: TK-10 renal
[46] = test system: U251 CNS
[47] = test system: UACC-257 melanoma
[48] = test system: UO-31 renal
[49] = test system: LOX IMVI melanoma
[50] = test system: MDA-MB-231 breast
[51] = test system: MDA-MB-435
[52] = test system: NCI-H522 lung
[53] = test system: OVCAR-3 ovarian
[54] = test system: SF-539 CNS
[55] = test system: SK-MEL-2 melanoma
[56] = test system: SN12C renal
[57] = test system: UACC-62 melanoma
[58] = test system: BT-549 breast
[59] = test system: NCI-H226 lung

Structure (SMILES): O=C(CCl)N1CCN(c2ccccn2)CC1
- TGI [1]: 35.1 µM
- TGI [2]: 31.4 µM
- TGI [3]: > 10 µM
- TGI [4]: 61.2 µM
- TGI [5]: 33.5 µM
- TGI [6]: 69.2 µM
- TGI [7]: 47.4 µM
- TGI [8]: > 100 µM
- TGI [9]: 48.6 µM
- TGI [10]: 35.8 µM
- TGI [11]: > 100 µM
- TGI [12]: > 10 µM
- TGI [13]: 49.6 µM
- TGI [14]: 46.2 µM
- TGI [15]: 36.3 µM
- TGI [16]: > 100 µM
- TGI [17]: 32.3 µM
- TGI [18]: 45.7 µM
- TGI [19]: > 100 µM
- TGI [20]: 94 µM
- TGI [21]: 35.5 µM
- TGI [22]: 31.8 µM
- TGI [23]: 53 µM
- TGI [24]: 42.4 µM
- TGI [25]: > 100 µM
- TGI [26]: 39.9 µM
- TGI [27]: 41.2 µM
- TGI [28]: 57.7 µM
- TGI [29]: 31 µM
- TGI [30]: 35.1 µM
- TGI [31]: 60.8 µM
- TGI [32]: > 100 µM
- TGI [33]: > 100 µM
- TGI [34]: 41.6 µM
- TGI [35]: 63.8 µM
- TGI [36]: > 10 µM
- TGI [37]: 41.6 µM
- TGI [38]: 35 µM
- TGI [39]: > 100 µM
- TGI [40]: > 100 µM
- TGI [41]: > 10 µM
- TGI [42]: > 100 µM
- TGI [43]: 51.6 µM
- TGI [44]: 31.7 µM
- TGI [45]: 35.8 µM
- TGI [46]: 33.9 µM
- TGI [47]: 65.5 µM
- TGI [48]: 36.3 µM

Structure (SMILES): CCOC(=O)/C1=C(\C)N(Cc2ccccc2)C(=O)c2ccccc2C(=O)c2c(OC(C)=O)ccc(OC(C)=O)c21
- TGI [1]: > 100 µM
- TGI [2]: > 100 µM
- TGI [3]: > 100 µM
- TGI [4]: > 100 µM
- TGI [5]: > 100 µM
- TGI [6]: > 100 µM
- TGI [7]: > 100 µM
- TGI [9]: 90.9 µM
- TGI [10]: 37.4 µM
- TGI [12]: > 100 µM
- TGI [13]: 79.1 µM
- TGI [14]: > 100 µM
- TGI [15]: 43.9 µM
- TGI [16]: > 100 µM
- TGI [17]: > 100 µM
- TGI [18]: > 100 µM
- TGI [19]: > 100 µM
- TGI [20]: > 100 µM
- TGI [49]: > 100 µM
- TGI [22]: > 100 µM
- TGI [23]: 58.6 µM
- TGI [50]: > 100 µM
- TGI [51]: > 100 µM
- TGI [24]: > 100 µM
- TGI [25]: > 100 µM
- TGI [27]: > 100 µM
- TGI [52]: > 100 µM
- TGI [28]: > 100 µM
- TGI [53]: 80.9 µM
- TGI [29]: > 100 µM
- TGI [30]: > 100 µM
- TGI [31]: > 100 µM
- TGI [33]: 45.1 µM
- TGI [34]: 93 µM
- TGI [35]: > 100 µM
- TGI [36]: > 100 µM
- TGI [54]: > 100 µM
- TGI [55]: > 100 µM
- TGI [37]: > 100 µM
- TGI [38]: > 100 µM
- TGI [39]: > 100 µM
- TGI [56]: > 100 µM
- TGI [40]: > 100 µM
- TGI [41]: > 100 µM
- TGI [42]: > 100 µM
- TGI [43]: > 100 µM
- TGI [44]: > 100 µM
- TGI [45]: > 100 µM
- TGI [46]: > 100 µM
- TGI [47]: > 100 µM
- TGI [57]: > 100 µM
- TGI [48]: > 100 µM

Structure (SMILES): CN1C(=O)C(O)CC1c1ccccc1F (stereo not given)
- TGI [1]: > 100 µM
- TGI [2]: > 100 µM
- TGI [3]: > 100 µM
- TGI [4]: > 100 µM
- TGI [58]: > 100 µM
- TGI [5]: > 100 µM
- TGI [6]: > 100 µM
- TGI [7]: > 100 µM
- TGI [8]: > 100 µM
- TGI [9]: > 100 µM
- TGI [10]: > 100 µM
- TGI [11]: > 100 µM
- TGI [12]: > 100 µM
- TGI [13]: > 100 µM
- TGI [14]: > 100 µM
- TGI [15]: > 100 µM
- TGI [17]: > 100 µM
- TGI [18]: > 100 µM
- TGI [19]: > 100 µM
- TGI [20]: > 100 µM
- TGI [49]: > 100 µM
- TGI [21]: > 100 µM
- TGI [22]: > 100 µM
- TGI [23]: > 100 µM
- TGI [50]: > 100 µM
- TGI [51]: > 100 µM
- TGI [24]: > 100 µM
- TGI [25]: > 100 µM
- TGI [59]: > 100 µM
- TGI [26]: > 100 µM
- TGI [27]: > 100 µM
- TGI [52]: > 100 µM
- TGI [28]: > 100 µM
- TGI [53]: > 100 µM
- TGI [29]: > 100 µM
- TGI [30]: > 100 µM
- TGI [31]: > 100 µM
- TGI [32]: > 100 µM
- TGI [33]: > 100 µM
- TGI [34]: > 100 µM
- TGI [36]: > 100 µM
- TGI [54]: > 100 µM
- TGI [55]: > 100 µM
- TGI [37]: > 100 µM
- TGI [38]: > 100 µM
- TGI [56]: > 100 µM
- TGI [40]: > 100 µM
- TGI [41]: > 100 µM
- TGI [42]: > 100 µM
- TGI [43]: > 100 µM
- TGI [46]: > 100 µM
- TGI [47]: > 100 µM
- TGI [57]: > 100 µM
- TGI [48]: > 100 µM

Structure (SMILES): C#CCC(O)c1ccc(OC)c(OCc2ccccc2)c1 (stereo not given)
- TGI [1]: > 100 µM
- TGI [2]: > 100 µM
- TGI [3]: > 100 µM
- TGI [4]: > 100 µM
- TGI [5]: > 100 µM
- TGI [6]: > 100 µM
- TGI [7]: > 100 µM
- TGI [8]: > 100 µM
- TGI [9]: > 100 µM
- TGI [10]: > 100 µM
- TGI [11]: > 100 µM
- TGI [12]: > 100 µM
- TGI [13]: > 100 µM
- TGI [14]: > 100 µM
- TGI [15]: > 100 µM
- TGI [16]: > 100 µM
- TGI [17]: > 100 µM
- TGI [18]: > 100 µM
- TGI [19]: > 100 µM
- TGI [20]: > 100 µM
- TGI [49]: > 100 µM
- TGI [21]: > 100 µM
- TGI [22]: > 100 µM
- TGI [23]: > 100 µM
- TGI [50]: > 100 µM
- TGI [51]: > 100 µM
- TGI [24]: > 100 µM
- TGI [25]: 56.6 µM
- TGI [59]: > 100 µM
- TGI [26]: > 100 µM
- TGI [27]: > 100 µM
- TGI [52]: > 100 µM
- TGI [28]: > 100 µM
- TGI [53]: > 100 µM
- TGI [29]: > 100 µM
- TGI [30]: > 100 µM
- TGI [31]: > 100 µM
- TGI [32]: > 100 µM
- TGI [33]: > 100 µM
- TGI [34]: > 100 µM
- TGI [35]: > 100 µM
- TGI [36]: > 100 µM
- TGI [54]: > 100 µM
- TGI [55]: > 100 µM
- TGI [37]: > 100 µM
- TGI [38]: > 100 µM
- TGI [39]: > 100 µM
- TGI [56]: > 100 µM
- TGI [40]: > 100 µM
- TGI [41]: 78.4 µM
- TGI [44]: > 100 µM
- TGI [45]: > 100 µM
- TGI [46]: > 100 µM
- TGI [47]: > 100 µM
- TGI [57]: > 100 µM
- TGI [48]: > 100 µM
